Results on two molecules are retold here after patent publication US4161527A, “Antibiotic compositions” (priority 1976, dated 1979).

Series [1] can be described thus: Dissolution time on addition of 3 ml. of distilled water. The format is physicochemical. Particulars: shaken vigorously.
Protocol: To each of the Samples was added 3 ml. of distilled water and the times of dissolution were measured. […] Provided that, in dissolution, Samples A and B were allowed to stand, while Sample C was shaken vigorously.
A short description of series [2]: Color of the Samples 3 hours after dissolution. The format is physicochemical. The following applies: 3 ml. of distilled water.
Series [3] has as its system Staphylococcus aureus FDA 209 P. The experiment in a line: Antibacterial spectrum (agar dilution), M.I.C. The format is cell-based. The following applies: FDA209.
The subject of series [4] is Staphylococcus aureus 1840. The series can be described thus: Antibacterial spectrum (agar dilution), M.I.C. It is filed as cell-based. Background: Agar dilution tests growth on a series of plates holding different concentrations.
Series [5] relates to Escherichia coli NIHJ JC-2. The experiment in a line: Antibacterial spectrum (agar dilution), M.I.C. The format is cell-based. Particulars: NIHJJC2.
Series [6] deals with Escherichia coli 0-111. The series can be described thus: Antibacterial spectrum (agar dilution), M.I.C. It is filed as cell-based. The following applies: 0111. An excerpt:
(§1) The antibacterial potency (M.I.C.) and toxicity of TTC
(§2) (1) Antibacterial spectrum (agar dilution)

Series [7] has as its system Escherichia coli T-7. The experiment in a line: Antibacterial spectrum (agar dilution), M.I.C. It is filed as cell-based. Particulars: T7.
Excerpt: as §1, §2

Series [8] concerns Krebsiella pneumoniae DT. The experiment in a line: Antibacterial spectrum (agar dilution), M.I.C. It is filed as cell-based.
In series [9] the test system is Proteus vulgaris IFO 3988. The experiment in a line: Antibacterial spectrum (agar dilution), M.I.C. The format is cell-based. The following applies: IFO3988.
Series [10] relates to Proteus morganii IFO 3848. The series can be described thus: Antibacterial spectrum (agar dilution), M.I.C. It is filed as cell-based. The following applies: Morganella morganii, IFO3848.
The test system of series [11] is Gram-positive and Gram-negative bacteria. The format is cell-based.
Series [12] is described as follows: Storage stability (general statement). It is filed as physicochemical.
Series [13] relates to local tissue at the sites of injection. The experiment in a line: Local reactions at the sites of intramuscular injection (general statement). It is filed as in vivo. Particulars: intramuscularly injected.
Series [14] in a line: Dissolution in a solvent such as distilled water (general statement). It is filed as physicochemical.

SMILES strings stand for the structures. Structures can show the parent of a compound that is named as a salt.

On to `CN(C)CCn1nnnc1SCC1=C(C(=O)O)N2C(=O)[C@@H](NC(=O)Cc3csc(=N)[nH]3)[C@H]2SC1` [TTC hydrate, 7β-[2-(2-imino-4-thiazolin-4-yl)acetamido]-3-{1-[2-(N,N-dimethylamino)ethyl]-1-H-tetrazol-5-yl}thiomethyl-3-cephem-4-carboxylic acid dihydrochloride hydrate], for which the Dissolution time in [1] is 180 s. The “Color 3 hours after dissolution” value in [2] is listed as “Reddish yellow”.
As to `CN(C)CCn1nnnc1SCC1=C(C(=O)O)N2C(=O)[C@@H](NC(=O)Cc3csc(N)n3)[C@H]2SC1.Cl.Cl` [TTC, 7β-[2-(2-imino-4-thiazolin-4-yl)acetamido]-3-{1-[2-(N,N-dimethylamino)ethyl]-1H-tetrazol-5-yl}thiomethyl-3-cephem-4-carboxylic acid dihydrochloride], the minimal inhibitory concentration (MIC) in series [3] amounted to 0.39 µg/mL; in series [4], 0.78 µg/mL; in series [5], 0.2 µg/mL; in series [6], 0.05 µg/mL; in [7] it was 1.56 µg/mL; in series [8], 0.1 µg/mL. In addition, the MIC in [9] stood at 1.56 µg/mL; in series [10] it was 0.39 µg/mL. Besides, the antibacterial activity entry in series [11] was “strong antibacterial activity against Gram-positive and Gram-negative bacteria”. The stability in storage result in [12] is on record as “stable in storage”. The “local reactions at the sites of injection” value in [13] is “necrosis of muscle cells, discoloration or brown degeneration of the local tissue, hyperemia and other local reactions at the sites of injection”. In addition, the dissolution result in series [14] is on record as “rather slow to be dissolved”.

As a reminder, the MIC is the lowest concentration that inhibits growth of the organism. Read a high MIC as a less susceptible organism.
